Reference: US20250339443A1, “METHOD FOR TREATING OR PREVENTING CALCIUM RELEASE-ACTIVATED CALCIUM CHANNEL OR DISCOIDIN DOMAIN RECEPTOR 2 RELATED DISORDERS OR CONDITIONS” (LumiSTAR Biotechnology, Inc., priority 2023, published 2025)

What was measured:
NRK49F cells [1] = assay: TGF-β1-induced activation of renal fibroblasts (Western blot); type: cell-based, rat; conditions: 10 μM, 24 hours
Description: FIG. 2A, FIG. 2B, FIG. 2C, FIG. 2D, FIG. 2E, FIG. 2F, FIG. 2G-1, and FIG. 2G-2 display how WRG-28 and Av suppress TGF-β1-induced fibroblasts activation and the differentiation of pericytes into myofibroblasts. […] Each bar represents the mean #SEM. […] The protein levels of collagen 1a1 and α-SMA were assessed using Western blot analysis under various conditions. […] Each bar represents mean±SEM. […] The images were acquired using a confocal microscope (Olympus, MPE). FIG. 2G-1 and FIG. 2G-2 display the measurement of angles between collagen fibers and the cell membrane, conducted using Image J. At least five different images from each condition were analyzed. Each bar represents mean±SEM. […]
(§1) Cell lysates were harvested in RIPA buffer (150 mM NaCl, 1 mM EGTA, 50 mM Tris pH 7.4, 10% glycerol, 1% Triton X-100, 1% sodium deoxycholate, 0.1% SDS, and protease inhibitor cocktail) and collected from culture dish with cell scrapers. […] The protein expression levels were assessed by specific primary antibodies, including antibodies against phosphotyrosine (clone 4G10; Millipore), DDR2 (R&D), α-SMA (Sigma), Collagen 1a1 (Boster), E-cadherin (BD Biosciences), SGLT2 (Proteintech), NHE1 (Novus) and β-actin (Clone C4, Millipore), followed by incubating with secondary antibodies conjugated with HRP and detected by ECL kit (Thermo Scientific). […]

NRK49F cells [2] = assay: Collagen gel contraction assay; type: cell-based, rat; conditions: NRK49F in collagen gel, 10 ng/ml TGF-β1, 10 μM, 3 days, 8 hours after release
Description: FIG. 2A, FIG. 2B, FIG. 2C, FIG. 2D, FIG. 2E, FIG. 2F, FIG. 2G-1, and FIG. 2G-2 display how WRG-28 and Av suppress TGF-β1-induced fibroblasts activation and the differentiation of pericytes into myofibroblasts. […] Each bar represents the mean #SEM. […] The protein levels of collagen 1a1 and α-SMA were assessed using Western blot analysis under various conditions. […] Each bar represents mean±SEM. […] The images were acquired using a confocal microscope (Olympus, MPE). FIG. 2G-1 and FIG. 2G-2 display the measurement of angles between collagen fibers and the cell membrane, conducted using Image J. At least five different images from each condition were analyzed. Each bar represents mean±SEM. In all graphs, *, **, and *** represent p-value <0.05, 0.01, and 0.001, respectively. ‘ns’ denotes p-value >0.05, indicating no significant difference.
The collagen gel was made by mixing 3 ml rat tail collagen (Corning), 1 ml 5.7×DMEM, 500 μl 2.5% NaHCO3, 1 ml 0.1 M HEPES, 100 μl 0.17 M CaCl2, 100 μl 1 N NaOH, and 4.3 ml culture medium containing 2×10^6 NRK49F cells. 2 ml medium with or without 10 ng/ml TGF-β1 was applied onto gel in each well of 6 well-plate and cells were incubated for 3 days. After that gels were released from the culture plate and the gel area was quantified by Image J. […]

[3] = system: rat hepatic stellate cells (HSC-T6); assay: TGF-β1-induced activation of rat hepatic stellate cells (Western blot); type: cell-based; conditions: HSC-T6, 10 μM co-treatment, 24 hours
Description: Cells were co-treated with various compounds (10 μM) and TGF-β1 for 24 hours. Following this, cell lysates were harvested, and the protein expression was assessed by Western blot analysis. FIG. 3D depicts the examination of TGF-β1-induced fibronectin deposition and α-SMA expression in HCF treated with 10 μM of DMSO, BTP2, WRG-28, or Av through immunofluorescence staining. The images were captured using a confocal microscope, the Olympus FV-1000. FIG. 3E, FIG. 3F, and FIG. 3G illustrate the assessment of CRAC channel activity in HCF, MRC5, and rat HSC-T6. These cells were pretreated with 10 μM of BTP2, WRG-28, or Av for 45 min. The evaluation included measuring the second peak of each calcium wave and the rate of entry. […]
as §1

Structure (SMILES) | TGF-β1-induced upregulation of collagen 1a1 and α-SMA (NRK49F cells [1]) | gel shrinkage (relative gel area) upon TGF-β1 stimulation (NRK49F cells [2]) | upregulation of α-SMA induced by TGF-β1 [3]
Cc1nnsc1C(=O)Nc1ccc(-n2nc(C(F)(F)F)cc2C(F)(F)F)cc1 [BTP2] | significantly suppressed | markedly reduced | suppressed
CCNS(=O)(=O)c1ccc(COc2ccc3nc4ccc(=O)cc-4oc3c2)cc1 [WRG-28] | significantly suppressed | markedly reduced | suppressed
